In PMC3568144, “Pseudomonas aeruginosa PA1006 Is a Persulfide-Modified Protein That Is Critical for Molybdenum Homeostasis” (PLoS ONE, 2013):

Legend:
His6-PA3667/CsdA [1] = biological target: T1, His6-PA3667/CsdA (Pseudomonas aeruginosa, UniProt Q9HXX3); experiment: absorption spectrum of purified enzyme (~[…] nm band, reducible with sodium borohydride); assay type: binding; conditions: 100 µM cofactor in purification and storage buffers
T1 construct: gene csd; full length, His6 tag kept, pET24D, E. coli BL21pLysS, Ni-NTA and MonoQ; dimer (~100 kDa) by gel filtration
T1 sequence (Q9HXX3 1-401): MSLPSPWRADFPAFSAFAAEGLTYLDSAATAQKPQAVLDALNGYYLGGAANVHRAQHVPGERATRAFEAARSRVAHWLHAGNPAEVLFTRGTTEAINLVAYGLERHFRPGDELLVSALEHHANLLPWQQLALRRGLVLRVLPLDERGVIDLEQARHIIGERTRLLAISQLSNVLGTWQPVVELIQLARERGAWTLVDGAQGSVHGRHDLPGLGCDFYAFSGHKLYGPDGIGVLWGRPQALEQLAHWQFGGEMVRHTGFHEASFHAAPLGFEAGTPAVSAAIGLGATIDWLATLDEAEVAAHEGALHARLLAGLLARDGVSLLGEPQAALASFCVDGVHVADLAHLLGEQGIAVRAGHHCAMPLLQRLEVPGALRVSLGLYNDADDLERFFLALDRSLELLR

His6-PA3667/CsdA [2] = biological target: T1, His6-PA3667/CsdA; experiment: […] transfer to the enzyme, non-reducing SDS-PAGE with phosphorimaging; assay type: biochemical; conditions: labelled compound; 50 µM 35S Cys, 2 µM enzyme, pH 7.5, 37°C, 10 min
[3] = biological target: the molecule itself; experiment: SEC; analytical gel filtration, Superose 6 column (GE Life Sciences), FPLC

Cc1ncc(COP(=O)(O)O)c(C=O)c1O [pyridoxal phosphate]
absorption spectrum of purified enzyme (~400 nm band, reducible with sodium boro) (His6-PA3667/CsdA [1]): absorbance spectrum of His6-PA3667/CsdA indicated that it contained a pyridoxal phosphate cofactor

N[C@@H](CS)C(=O)O [Cys]
35S transfer to the enzyme, non-reducing SDS-PAGE with phosphorimaging (His6-PA3667/CsdA [2]): PA3667/CsdA displayed Cys desulfurase activity and was capable of transferring

B1: His6-PA3667/CsdA purified from E. coli (enzyme, Pseudomonas aeruginosa, UniProt Q9HXX3 1-401, looked up)
chain: MSLPSPWRADFPAFSAFAAEGLTYLDSAATAQKPQAVLDALNGYYLGGAANVHRAQHVPGERATRAFEAARSRVAHWLHAGNPAEVLFTRGTTEAINLVAYGLERHFRPGDELLVSALEHHANLLPWQQLALRRGLVLRVLPLDERGVIDLEQARHIIGERTRLLAISQLSNVLGTWQPVVELIQLARERGAWTLVDGAQGSVHGRHDLPGLGCDFYAFSGHKLYGPDGIGVLWGRPQALEQLAHWQFGGEMVRHTGFHEASFHAAPLGFEAGTPAVSAAIGLGATIDWLATLDEAEVAAHEGALHARLLAGLLARDGVSLLGEPQAALASFCVDGVHVADLAHLLGEQGIAVRAGHHCAMPLLQRLEVPGALRVSLGLYNDADDLERFFLALDRSLELLR
notes: PA3667/CsdA, cysteine desulfurase, Pseudomonas aeruginosa; Contains a pyridoxal phosphate cofactor; 100 µM pyridoxal phosphate was added to the buffers; source: E. coli BL21pLysS (pET24D), purified (Ni2+-NTA agarose, MonoQ)
stoichiometry N [3]: 2
